Results on 19 compounds are retold here after patent US10344019B2 (priority 2010, dated 2019).

pEC50: −log10 of the molar value.

Experiment in all cases: microbe, parasite or virus in culture
Common to all, as to assay type: cell-based

Assay [1] has as its system HCV 1b RLuc cells (dicistronic genotype 1b Con1 replicon, RLuc reporter). To be noted: Hepatitis C virus, read-out: 1b (nM). Summed up:
(§1)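 Renilla luciferase HCV replicon cells: dicistronic 1b Con1, 1a H77 or 2a JFH-1 replicons, or a JFH-1 chimera carrying J6 NS5A (M31 present). Compound in DMSO serial dilutions, 72 h incubation, then lysis and luciferase read. EC50 by non-linear regression.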

For assay [2], the system named is HCV 4a Rluc cells (NS5A chimeric genotype 1b Con1 replicon with genotype 4a NS5A gene). To be noted: Hepatitis C virus, read-out: 4a. The procedure, abridged: (§2)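 Replicon cells stably carrying the listed RLuc-encoding dicistronic replicons were seeded and treated with DMSO serial dilutions of compound (10 mM stocks) diluted into culture medium. After 72 h, cells were lysed and Renilla luciferase activity measured. EC50 was derived by non-linear regression.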

Assay [3] concerns HCV 1a RLuc cells (dicistronic genotype 1a H77 replicon, RLuc reporter). To be noted: Hepatitis C virus, genotype 1a replicon; read-out: 1a. The procedure, abridged:
as §1
(In general: Replicon systems follow genome replication, usually without infectious particles.)

In assay [4] the test system is HCV 3a RLuc cells (NS5A chimeric genotype 1b Con1 replicon with consensus genotype 3a NS5A gene). The settings on record: Hepatitis C virus, read-out: 3a, genotype 3a replicon. Summed up: as §2
In assay [5] the test system is HCV 2a JFH-1 Rluc cells (dicistronic genotype 2a JFH-1 replicon, RLuc reporter). To be noted: Hepatitis C virus, genotype 2a JFH-1 replicon; read-out: 2a JFH. Summed up: as §1

As for `CC#Cc1cc(-c2cnc([C@@H]3CCCN3C(=O)[C@@H](NC(=O)OC)C(C)C)[nH]2)ccc1-c1ccc(-c2cnc([C@@H]3CCCN3C(=O)[C@H](NC(=O)OC)c3ccccc3)[nH]2)cc1` [Example 348], in assay [1], the EC50 stood at 0.011 nM. In addition, the pEC50 in assay [2], in assay [3], in assay [4] and in assay [5] was 9.00 to 12.00 each time.

As for `COC(=O)N[C@H](C(=O)N1CCC[C@H]1c1ncc(-c2ccc(-c3ccc4c(ccc5nc([C@@H]6CCCN6C(=O)[C@@H](NC(=O)OC)C(C)C)[nH]c54)c3)c(C#CC3CC3)c2)[nH]1)C(C)C` [Example 349], the EC50 in assay [1] was determined as 0.005 nM. Also, the pEC50 in assay [2], in assay [3], in assay [4] and in assay [5] was 9.00 to 12.00 each time.

`COC(=O)N[C@H](C(=O)N1CCC[C@H]1c1nc2ccc3cc(-c4ccc(-c5cnc([C@@H]6CCCN6C(=O)[C@@H](NC(=O)OC)C6CCOCC6)[nH]5)cc4C#CC4CC4)ccc3c2[nH]1)C(C)C` [Example 350]: the EC50 in assay [1] stood at 0.02 nM. Also, the pEC50 in assay [2], in assay [3], in assay [4] and in assay [5] was 9.00 to 12.00 throughout.

As to `COC(=O)N[C@H](C(=O)N1CCC[C@H]1c1nc2ccc3cc(-c4ccc(-c5cnc([C@@H]6CCCN6C(=O)[C@H](NC(=O)OC)c6ccccc6)[nH]5)cc4C#CC4CC4)ccc3c2[nH]1)C(C)C` [Example 351], the EC50 in assay [1] is 0.008 nM. The pEC50 in assay [2], in assay [3], in assay [4] and in assay [5] was 9.00 to 12.00 throughout.

Regarding `COC(=O)N[C@H](C(=O)N1CCC[C@H]1c1nc(Cl)c(-c2ccc(-c3ccc(-c4[nH]c([C@@H]5CCCN5C(=O)[C@@H](NC(=O)OC)C5CCOCC5)nc4Cl)cc3)cc2)[nH]1)C1CCOCC1` [Example 353], in assay [1], the EC50 is 0.493 nM. The pEC50 in assay [2], in assay [3], in assay [4] and in assay [5] was 9.00 to 12.00 each time.

Turning to `COC(=O)N[C@H](C(=O)N1CC2(C[C@H]1c1ncc(-c3ccc(-c4ccc5c(ccc6nc([C@@H]7CCCN7C(=O)[C@H](NC(=O)OC)c7ccccc7)[nH]c65)c4)cc3)[nH]1)OCCO2)C(C)C` [Example 354], the EC50 in assay [1] came to 0.031 nM. The pEC50 in assay [2], in assay [3], in assay [4] and in assay [5] was 9.00 to 12.00 in each case.

Take `COC(=O)N[C@H](C(=O)N1CCC[C@H]1c1ncc(-c2ccc(-c3ccc(-c4[nH]c([C@@H]5CCCN5C(=O)[C@@H](NC(=O)OC)C(C)C)nc4Cl)cc3)cc2)[nH]1)C(C)C` [Example 359]: the EC50 in assay [1] is 0.011 nM. For the same compound, the pEC50 in assay [2], in assay [3], in assay [4] and in assay [5] was 9.00 to 12.00 throughout.

On to `COC(=O)N[C@H](C(=O)N1CCC[C@H]1c1nc(Cl)c(-c2ccc(-c3ccc(-c4[nH]c([C@@H]5CCCN5C(=O)[C@@H](NC(=O)OC)C5CCOCC5)nc4Cl)cc3)cc2)[nH]1)C(C)C` [Example 360], for which, in assay [1], the EC50 was determined as 0.053 nM. The pEC50 in assay [2], in assay [3], in assay [4] and in assay [5] was 9.00 to 12.00 throughout.

For the compound `COC(=O)N[C@H](C(=O)N1CCC[C@H]1c1nc2c([nH]1)-c1ccc(-c3ccc4c(ccc5nc([C@@H]6CC7(CN6C(=O)[C@H](NC(=O)OC)c6ccccc6)OCCO7)[nH]c54)c3)cc1CC2)C(C)C` [Example 366], the EC50 in assay [1] stood at 0.075 nM. In addition, the pEC50 in assay [2], in assay [3], in assay [4] and in assay [5] was 9.00 to 12.00 each time.

On to `COC(=O)N[C@H](C(=O)N1[C@@H]2CC[C@@H](C2)[C@H]1c1nc2ccc3cc(-c4ccc(-c5cnc([C@@H]6C[C@H]7C[C@H]7N6C(=O)[C@@H](NC(=O)OC)C6CCOCC6)[nH]5)cc4)ccc3c2[nH]1)C(C)C` [Example 367], for which the EC50 in assay [1] was 0.049 nM. The pEC50 in assay [2], in assay [3], in assay [4] and in assay [5] was 9.00 to 12.00 each time.

As to `COC(=O)N[C@H](C(=O)N1[C@@H]2CC[C@@H](C2)[C@H]1c1nc2ccc3cc(-c4ccc(-c5cnc([C@@H]6C[C@H]7C[C@H]7N6C(=O)[C@H](NC(=O)OC)c6ccccc6)[nH]5)cc4)ccc3c2[nH]1)C(C)C` [Example 368], in assay [1], the EC50 was 0.012 nM. Moreover, the pEC50 in assay [2], in assay [3], in assay [4] and in assay [5] was 9.00 to 12.00 throughout.

Turning to `COC(=O)N[C@H](C(=O)N1CCC[C@H]1c1nc2ccc3cc(-c4ccc5c(c4)CCc4nc(C6CC7(CN6C(=O)[C@H](NC(=O)OC)c6ccccc6)OCCO7)[nH]c4-5)ccc3c2[nH]1)C(C)C` (some centres unmarked) [Example 369], the EC50 in assay [1] is 0.047 nM. Further, the pEC50 in assay [2], in assay [3], in assay [4] and in assay [5] was 9.00 to 12.00 in each case.

As for `COC(=O)N[C@H](C(=O)N1CCC[C@H]1c1ncc(-c2ccc(-c3ccc4c(ccc5nc([C@@H]6[C@H]7CC[C@H](C7)N6C(=O)[C@@H](NC(=O)OC)C(C)C)[nH]c54)c3)cc2Cl)[nH]1)C(C)C` [Example 371], the EC50 in assay [1] was determined as 0.007 nM. Further, the pEC50 in assay [2] was 9.00 to 12.00; in assay [3] it was 9.00 to 12.00; in assay [4] it was less than 8.30; in assay [5], 9.00 to 12.00.

On to `CC#Cc1cc(-c2cnc([C@@H]3CCCN3C(=O)[C@@H](NC(=O)OC)C(C)C)[nH]2)ccc1-c1ccc2c(ccc3nc([C@@H]4CCCN4C(=O)[C@@H](NC(=O)OC)C(C)C)[nH]c32)c1` [Example 372], for which the EC50 in assay [1] turned out to be 0.008 nM. Moreover, the pEC50 in assay [2], in assay [3], in assay [4] and in assay [5] was 9.00 to 12.00 in each case.

For the compound `COC(=O)N[C@H](C(=O)N1CCC[C@H]1c1ncc(-c2cc3c4c(c2)OCc2cc(-c5cnc([C@@H]6CCCN6C(=O)[C@@H](NC(=O)OC)C6CCCC6)[nH]5)cc(c2-4)OC3)[nH]1)C1CCCC1` [Example 377], the EC50 in assay [1] came out at 0.022 nM. The pEC50 in assay [2], in assay [3], in assay [4] and in assay [5] was 9.00 to 12.00 in each case.

`COC(=O)N[C@H](C(=O)N1[C@@H]2CC[C@@H](C2)[C@H]1c1ncc(-c2ccc(-c3ccc4c(ccc5nc([C@@H]6C[C@H]7C[C@H]7N6C(=O)[C@@H](NC(=O)OC)C6CCOCC6)[nH]c54)c3)cc2)[nH]1)C(C)C` [Example 378]: in assay [1], the EC50 amounted to 0.036 nM. Further, the pEC50 in assay [2], in assay [3], in assay [4] and in assay [5] was 9.00 to 12.00 each time.

Regarding `COC(=O)N[C@H](C(=O)N1CCC[C@H]1c1nc(Cl)c(-c2ccc(-c3ccc4cc(-c5[nH]c([C@@H]6CCCN6C(=O)[C@@H](NC(=O)OC)C(C)C)nc5Cl)ccc4c3)cc2)[nH]1)C(C)C` [Example 380], the EC50 in assay [1] came to 0.006 nM. The pEC50 in assay [2] was 9.00 to 12.00; in assay [3], 9.00 to 12.00; in assay [4], less than 8.30; in assay [5] it was 9.00 to 12.00.

As for `COC(=O)N[C@H](C(=O)N1CC2(CC2)C[C@H]1c1nc(-c2ccc3c(c2)C(F)(F)c2cc(-c4ccc5nc([C@@H]6[C@H]7CC[C@H](C7)N6C(=O)[C@@H](NC(=O)OC)C(C)C)[nH]c5c4)ccc2-3)c(Cl)[nH]1)C(C)C` [Example 382], the EC50 in assay [1] was 0.006 nM. For the same compound, the pEC50 was 9.00 to 12.00 in assay [2], 9.00 to 12.00 in assay [3], less than 8.30 in assay [4] and less than 7.36 in assay [5].

For the compound `COC(=O)N[C@H](C(=O)N1CCC[C@H]1c1nc2ccc3cc(-c4ccc(-c5[nH]c([C@@H]6C[C@H]7C[C@H]7N6C(=O)[C@@H](NC(=O)OC)C(C)C)nc5Cl)cc4)ccc3c2[nH]1)C(C)C` [Example 383], the EC50 in assay [1] was 0.008 nM. Also, the pEC50 in assay [2], in assay [3], in assay [4] and in assay [5] was 9.00 to 12.00 in each case.
